Structures are written as SMILES.

For orientation: IC50 means the concentration that inhibits the measured activity by half.

Chain of Factor D (P00746 26-253): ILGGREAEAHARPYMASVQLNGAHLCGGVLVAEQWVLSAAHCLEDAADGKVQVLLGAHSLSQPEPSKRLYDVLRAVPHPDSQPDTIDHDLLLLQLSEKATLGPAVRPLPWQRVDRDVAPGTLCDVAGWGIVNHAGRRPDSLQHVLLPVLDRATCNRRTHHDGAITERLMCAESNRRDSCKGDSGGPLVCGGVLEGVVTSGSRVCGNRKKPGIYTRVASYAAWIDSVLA

The test addresses Factor D (Homo sapiens, UniProt P00746). Description: Factor D esterolytic assay (Z-Lys-SBzl thioester substrate, DTNB, 405 nm). Type of test: biochemical. The settings on record: substrate Z-Lys-SBzl 1.29 mM, 100 mM HEPES, 500 mM NaCl, pH 7.5, 10% DMSO, tested a minimum of three times. In outline: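 Human Factor D hydrolysis of Z-Lys-SBzl (1.29 mM) monitored at 405 nm via DTNB thiol detection for 600 s, 690 nm background subtracted. Buffer 100 mM HEPES, 500 mM NaCl, pH 7.5, 10% DMSO; substrate added immediately or after room-temperature preincubation. IC50 from percent inhibition of rate, at least three tests.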
As to `Nc1ncnc2c1ncn2CC(=O)N1[C@@H]2C[C@@H]2C[C@H]1C(=O)N[C@@H]1C[C@H]1c1ccccc1Cl` [Compound 98b, (1R,3S,5R)-2-(2-(6-amino-9H-purin-9-yl)acetyl)-N-((1R,2S)-2-(2-chlorophenyl)cyclopropyl)-2-azabicyclo[3.1.0]hexane-3-carboxamide], the IC50 lay within 100 to 1000 nM.
With `COc1ccc2c(c1)c1c(N)ncnc1n2CC(=O)N1[C@@H]2C[C@@H]2C[C@H]1C(=O)Nc1cccc(Br)n1` [Compound 38e, (1R,3S,5R)-2-(2-(4-amino-6-methoxy-9H-pyrimido[4,5-b]indol-9-yl)acetyl)-N-(6-bromopyridin-2-yl)-2-azabicyclo[3.1.0]hexane-3-carboxamide], the half-maximal inhibitory concentration (IC50) was below 100 nM.
`C[C@@]12C[C@@H](C(=O)Nc3cccc(Br)n3)N(C(=O)Cn3c4ccc(-c5ccc(F)cc5)cc4c4c(N)ncnc43)[C@@H]1C2` [Compound 337a, (1R,3S,5R)-2-(2-(4-amino-6-(4-fluorophenyl)-9H-pyrimido[4,5-b]indol-9-yl)acetyl)-N-(6-bromopyridin-2-yl)-5-methyl-2-azabicyclo[3.1.0]hexane-3-carboxamide]: the concentration for half-maximal inhibition (IC50) is below 100 nM.
In the case of `Nc1ncnc2c1c(-c1c[nH]c3ccccc13)cn2CC(=O)N1C[C@H](F)C[C@H]1C(=O)NCc1cccc(Cl)c1F` [Compound 126f, (2S,4R)-1-(2-(4-amino-5-(1H-indol-3-yl)-7H-pyrrolo[2,3-d]pyrimidin-7-yl)acetyl)-N-(3-chloro-2-fluorobenzyl)-4-fluoropyrrolidine-2-carboxamide] it was 100 to 1000 nM; in that of `Cc1cc(-c2cccnc2)cc2c3c(N)ncnc3n(CC(=O)N3[C@@H]4C[C@@H]4C[C@H]3C(=O)Nc3cccc(Br)n3)c12` [Compound 288c, (1R,3S,5R)-2-(2-(4-amino-8-methyl-6-(pyridin-3-yl)-9H-pyrimido[4,5-b]indol-9-yl)acetyl)-N-(6-bromopyridin-2-yl)-2-azabicyclo[3.1.0]hexane-3-carboxamide], below 100 nM; in that of `Nc1ncnc2c1c(-c1ccc3cc[nH]c3c1)cn2CC(=O)N1C[C@H](F)C[C@H]1C(=O)NCc1cccc(Cl)c1F` [Compound 137b, (2S,4R)-1-(2-(4-amino-5-(1H-indol-6-yl)-7H-pyrrolo[2,3-d]pyrimidin-7-yl)acetyl)-N-(3-chloro-2-fluorobenzyl)-4-fluoropyrrolidine-2-carboxamide], below 100 nM.
Take `Nc1ncnc2c1c1ccc(O)cc1n2CC(=O)N1[C@@H]2C[C@@H]2C[C@H]1C(=O)Nc1cccc(Br)n1` [Compound 167a, (1R,3S,5R)-2-(2-(4-amino-7-hydroxy-9H-pyrimido[4,5-b]indol-9-yl)acetyl)-N-(6-bromopyridin-2-yl)-2-azabicyclo[3.1.0]hexane-3-carboxamide]: the IC50 was below 100 nM.
In the case of `O=C1NCc2cnc3c(ccn3CC(=O)N3C[C@H](F)C[C@H]3C(=O)NCc3cccc(Cl)c3F)c2N1` [Compound 235a, (2S,4R)—N-(3-chloro-2-fluorobenzyl)-4-fluoro-1-(2-(2-oxo-3,4-dihydro-1H-pyrrolo[3′,2′:5,6]pyrido[4,3-d]pyrimidin-7 (2H)-yl)acetyl)pyrrolidine-2-carboxamide] it was above 1000 nM.
Under `Nc1ncnc2c1c1cc(CO)ccc1n2CC(=O)N1[C@@H]2C[C@@H]2C[C@H]1C(=O)Nc1cccc(Br)n1` [Compound 195e, (1R,3S,5R)-2-(2-(4-amino-6-(hydroxymethyl)-9H-pyrimido[4,5-b]indol-9-yl)acetyl)-N-(6-bromopyridin-2-yl)-2-azabicyclo[3.1.0]hexane-3-carboxamide] stands below 100 nM; under `Nc1ncnc2c1ncn2CC(=O)N1[C@@H]2C[C@@H]2C[C@H]1C(=O)NCCOC(F)(F)F` [Compound 99b, (1R,3S,5R)-2-(2-(6-amino-9H-purin-9-yl)acetyl)-N-(2-(trifluoromethoxy)ethyl)-2-azabicyclo[3.1.0]hexane-3-carboxamide], above 1000 nM; under `C[C@@]12C[C@@H](C(=O)Nc3cccc(Br)n3)N(C(=O)Cn3c4ncnc(N)c4c4cccc(Br)c43)[C@@H]1C2` [Compound 186a, (1R,3S,5R)-2-(2-(4-amino-8-bromo-9H-pyrimido[4,5-b]indol-9-yl)acetyl)-N-(6-bromopyridin-2-yl)-5-methyl-2-azabicyclo[3.1.0]hexane-3-carboxamide], below 100 nM.
For the compound `Nc1nc(N)c2ccn(CC(=O)N3[C@@H]4C[C@@H]4C[C@H]3C(=O)Nc3cccc(Br)n3)c2n1` [Compound 87f, (1R,3S,5R)—N-(6-bromopyridin-2-yl)-2-(2-(2,4-diamino-7H-pyrrolo[2,3-d]pyrimidin-7-yl)acetyl)-2-azabicyclo[3.1.0]hexane-3-carboxamide], the IC50 was above 1000 nM.
As for `C[C@@]12C[C@@H](C(=O)Nc3cccc(Br)n3)N(C(=O)Cn3c4ccc(Cl)cc4c4c(N)ncnc43)[C@@H]1C2` [Compound 237a, (1R,3S,5R)-2-(2-(4-amino-6-chloro-9H-pyrimido[4,5-b]indol-9-yl)acetyl)-N-(6-bromopyridin-2-yl)-5-methyl-2-azabicyclo[3.1.0]hexane-3-carboxamide], the IC50 is below 100 nM.
In the case of `Nc1ncnc2c1c1cc(CCC(=O)O)ccc1n2CC(=O)N1[C@@H]2C[C@@H]2C[C@H]1C(=O)Nc1cccc(Br)n1` [Compound 165a, 3-(4-amino-9-(2-((1R,3S,5R)-3-((6-bromopyridin-2-yl)carbamoyl)-2-azabicyclo[3.1.0]hexan-2-yl)-2-oxoethyl)-9H-pyrimido[4,5-b]indol-6-yl)propanoic acid] it was below 100 nM; in that of `Cc1ncc(-c2cc(C)c3c(c2)c2c(N)ncnc2n3CC(=O)N2[C@@H]3C[C@@H]3C[C@H]2C(=O)Nc2nc(Br)ccc2C)cn1` [Compound 310a, (1R,3S,5R)-2-(2-(4-amino-8-methyl-6-(2-methylpyrimidin-5-yl)-9H-pyrimido[4,5-b]indol-9-yl)acetyl)-N-(6-bromo-3-methylpyridin-2-yl)-2-azabicyclo[3.1.0]hexane-3-carboxamide], below 100 nM; in that of `Cc1cc(-c2cccnc2)cc2c3c(N)ncnc3n(CC(=O)N3[C@H](C(=O)Nc4cccc(Br)n4)C[C@@]4(C)C[C@@H]34)c12` [Compound 289a, (1R,3S,5R)-2-(2-(4-amino-8-methyl-6-(pyridin-3-yl)-9H-pyrimido[4,5-b]indol-9-yl)acetyl)-N-(6-bromopyridin-2-yl)-5-methyl-2-azabicyclo[3.1.0]hexane-3-carboxamide], below 100 nM.
`Nc1ncnc2c1c1cc(O)ccc1n2CC(=O)N1[C@@H]2C[C@@H]2C[C@H]1C(=O)Nc1cccc(Br)n1` [Compound 166a, (1R,3S,5R)-2-(2-(4-amino-6-hydroxy-9H-pyrimido[4,5-b]indol-9-yl)acetyl)-N-(6-bromopyridin-2-yl)-2-azabicyclo[3.1.0]hexane-3-carboxamide]: the half-maximal inhibitory concentration (IC50) was below 100 nM.
As to `Cc1cc(C(=O)O)cc2c3c(N)ncnc3n(CC(=O)N3[C@@H]4C[C@@H]4C[C@H]3C(=O)Nc3cccc(Br)n3)c12` [Compound 218a, 4-amino-9-(2-((1R,3S,5R)-3-((6-bromopyridin-2-yl)carbamoyl)-2-azabicyclo[3.1.0]hexan-2-yl)-2-oxoethyl)-8-methyl-9H-pyrimido[4,5-b]indole-6-carboxylic acid], the half-inhibitory concentration (IC50) is below 100 nM.
Under `CNc1ncnc2c1cnn2CC(=O)N1[C@@H]2C[C@@H]2C[C@H]1C(=O)Nc1cccc(Br)n1` [Compound 82a, (1R,3S,5R)—N-(6-bromopyridin-2-yl)-2-(2-(4-(methylamino)-1H-pyrazolo[3,4-d]pyrimidin-1-yl)acetyl)-2-azabicyclo[3.1.0]hexane-3-carboxamide] stands above 1000 nM; under `COc1cccc2c1c1c(N)ncnc1n2CC(=O)N1[C@H](C(=O)Nc2nc(Br)ccc2C)C[C@@]2(C)C[C@@H]12` [Compound 249a, (1R,3S,5R)-2-(2-(4-amino-5-methoxy-9H-pyrimido[4,5-b]indol-9-yl)acetyl)-N-(6-bromo-3-methylpyridin-2-yl)-5-methyl-2-azabicyclo[3.1.0]hexane-3-carboxamide], below 100 nM; under `Cc1cc(Br)cc2c3c(N)ncnc3n(CC(=O)N3[C@H](C(=O)Nc4cccc(Br)n4)C[C@@]4(C)C[C@@H]34)c12` [Compound 193a, (1R,3S,5R)-2-(2-(4-amino-6-bromo-8-methyl-9H-pyrimido[4,5-b]indol-9-yl)acetyl)-N-(6-bromopyridin-2-yl)-5-methyl-2-azabicyclo[3.1.0]hexane-3-carboxamide], below 100 nM.
As for `Nc1ncnn2c(CC(=O)N3[C@@H]4C[C@@H]4C[C@H]3C(=O)Nc3cccc(Br)n3)ccc12` [Compound 70a, (1R,3S,5R)-2-(2-(4-aminopyrrolo[2,1-f][1,2,4]triazin-7-yl)acetyl)-N-(6-bromopyridin-2-yl)-2-azabicyclo[3.1.0]hexane-3-carboxamide], the IC50 was in the range of 100 to 1000 nM.
Under `Nc1ncnc2c1c1cc(OC(F)(F)F)ccc1n2CC(=O)N1[C@@H]2C[C@@H]2C[C@H]1C(=O)Nc1cccc(Br)n1` [Compound 274g, (1R,3S,5R)-2-(2-(4-amino-6-(trifluoromethoxy)-9H-pyrimido[4,5-b]indol-9-yl)acetyl)-N-(6-bromopyridin-2-yl)-2-azabicyclo[3.1.0]hexane-3-carboxamide] stands below 100 nM; under `Cc1cccc2c1c1c(N)ncnc1n2CC(=O)N1[C@H](C(=O)Nc2cccc(Br)n2)C[C@@]2(C)C[C@@H]12` [Compound 176a, (1R,3S,5R)-2-(2-(4-amino-5-methyl-9H-pyrimido[4,5-b]indol-9-yl)acetyl)-N-(6-bromopyridin-2-yl)-5-methyl-2-azabicyclo[3.1.0]hexane-3-carboxamide], 100 to 1000 nM; under `Nc1ncnc2c1nc(Br)n2CC(=O)N1C[C@H](F)C[C@H]1C(=O)NCc1cccc(Cl)c1F` [Compound 110d, (2S,4R)-1-(2-(6-amino-8-bromo-9H-purin-9-yl)acetyl)-N-(3-chloro-2-fluorobenzyl)-4-fluoropyrrolidine-2-carboxamide], above 1000 nM.
